Assay results as given in ChEMBL document CHEMBL5625252, “Synthesis of peptidomimetics as antibiotic adjuvants for combination with aztreonam to combat MDR Pseudomonas aeruginosa” (Eur J Med Chem, 2023).
In brackets after ≈: the same amount, converted by molar mass. Where a SMILES comes first, the peptide text is derived from it. The star is where a group is joined. βNA = c1ccc2cc(N*)ccc2c1

Columns and labels:
Pseudomonas aeruginosa [1] = assay: Synergistic antibacterial activity against Pseudomonas aeruginosa 12-1 assessed as aztreonam MIC at 128 ug/ml incubated for 18 hrs by checkerboard method; type: functional; conditions: dose 128 µg/ml
Pseudomonas aeruginosa [2] = assay: Synergistic antibacterial activity against Pseudomonas aeruginosa PAO1 assessed as aztreonam MIC at 64 ug/ml incubated for 18 hrs by checkerboard method (reference value: 8 microg/ml); type: functional; conditions: dose 64 µg/ml
Pseudomonas aeruginosa [3] = assay: Synergistic antibacterial activity against Pseudomonas aeruginosa 19-46 assessed as fractional inhibitory concentration index at 128 ug/ml incubated for 18 hrs in presence of aztreonam by checkerboard method; type: functional; conditions: dose 128 µg/ml
Pseudomonas aeruginosa [4] = assay: Antibacterial activity against Pseudomonas aeruginosa PAO1 in CAMH broth medium supplemented with 0.41 to 0.51 mM Mg2+ by checkerboard assay; type: functional
Pseudomonas aeruginosa [5] = assay: Synergistic antibacterial activity against Pseudomonas aeruginosa 16-2 assessed as fractional inhibitory concentration index at 128 ug/ml incubated for 18 hrs in presence of aztreonam by checkerboard method; type: functional; conditions: dose 128 µg/ml
Pseudomonas aeruginosa [6] = assay: Synergistic antibacterial activity against Pseudomonas aeruginosa PAO1 assessed as fractional inhibitory concentration index in CAMH broth medium supplemented with 20.99 to 21.09 mM Mg2+ in presence of aztreonam by checkerboard assay; type: functional
Pseudomonas aeruginosa [7] = assay: Synergistic antibacterial activity against Pseudomonas aeruginosa 13-35 assessed as fractional inhibitory concentration index in CAMH broth medium supplemented with 20.99 to 21.09 mM Mg2+ in presence of aztreonam by checkerboard assay; type: functional
Pseudomonas aeruginosa [8] = assay: Synergistic antibacterial activity against Pseudomonas aeruginosa 13-35 in CAMH broth medium supplemented with 0.41 to 0.51 mM Mg2+ in presence of aztreonam by checkerboard assay; type: functional
Pseudomonas aeruginosa [9] = assay: Synergistic antibacterial activity against Pseudomonas aeruginosa PAO1 assessed as fractional inhibitory concentration index at 128 ug/ml incubated for 18 hrs in presence of aztreonam by checkerboard method; type: functional; conditions: dose 128 µg/ml
Pseudomonas aeruginosa [10] = assay: Synergistic antibacterial activity against Pseudomonas aeruginosa 16-11 assessed as fractional inhibitory concentration index in CAMH broth medium supplemented with 20.99 to 21.09 mM Mg2+ in presence of aztreonam by checkerboard assay; type: functional
Pseudomonas aeruginosa [11] = assay: Synergistic antibacterial activity against Pseudomonas aeruginosa 16-11 assessed as fractional inhibitory concentration index in CAMH broth medium supplemented with 0.41 to 0.51 mM Mg2+ in presence of aztreonam by checkerboard assay; type: functional
Pseudomonas aeruginosa [12] = assay: Synergistic antibacterial activity against Pseudomonas aeruginosa 23-Y122 assessed as fractional inhibitory concentration index at 128 ug/ml incubated for 18 hrs in presence of aztreonam by checkerboard method; type: functional; conditions: dose 128 µg/ml
Pseudomonas aeruginosa [13] = assay: Antibacterial activity against Pseudomonas aeruginosa 23-Y364 assessed as inhibition of bacterial growth incubated for 18 hrs by agar dilution method; type: functional
Pseudomonas aeruginosa [14] = assay: Synergistic antibacterial activity against Pseudomonas aeruginosa 12-1 in CAMH broth medium supplemented with 0.41 to 0.51 mM Mg2+ in presence of aztreonam by checkerboard assay; type: functional
Pseudomonas aeruginosa [15] = assay: Synergistic antibacterial activity against Pseudomonas aeruginosa 12-1 assessed as fractional inhibitory concentration index in CAMH broth medium supplemented with 0.41 to 0.51 mM Mg2+ in presence of aztreonam by checkerboard assay; type: functional
Pseudomonas aeruginosa [16] = assay: Antibacterial activity against Pseudomonas aeruginosa K854 overexpressing MexAB-OprM assessed as fractional inhibitory concentration index upto 128 ug/ml incubated for 18 hrs in presence of aztreonam by checkerboard method; type: functional; conditions: dose <= 128 µg/ml
Pseudomonas aeruginosa [17] = assay: Synergistic antibacterial activity against Pseudomonas aeruginosa 23-Y511 assessed as fractional inhibitory concentration index at 128 ug/ml incubated for 18 hrs in presence of aztreonam by checkerboard method; type: functional; conditions: dose 128 µg/ml
Pseudomonas aeruginosa [18] = assay: Synergistic antibacterial activity against Pseudomonas aeruginosa PAO1 in CAMH broth medium supplemented with 20.99 to 21.09 mM Mg2+ in presence of aztreonam by checkerboard assay; type: functional
Pseudomonas aeruginosa [19] = assay: Antibacterial activity against Pseudomonas aeruginosa 16-11 in CAMH broth medium supplemented with 0.41 to 0.51 mM Mg2+ by checkerboard assay; type: functional
Pseudomonas aeruginosa [20] = assay: Synergistic antibacterial activity against Pseudomonas aeruginosa 12-1 assessed as fractional inhibitory concentration index in CAMH broth medium supplemented with 20.99 to 21.09 mM Mg2+ in presence of aztreonam by checkerboard assay; type: functional
Pseudomonas aeruginosa [21] = assay: Synergistic antibacterial activity against Pseudomonas aeruginosa 13-35 assessed as fractional inhibitory concentration index in CAMH broth medium supplemented with 0.41 to 0.51 mM Mg2+ in presence of aztreonam by checkerboard assay; type: functional
Pseudomonas aeruginosa [22] = assay: Synergistic antibacterial activity against Pseudomonas aeruginosa PAO1 in CAMH broth medium supplemented with 0.41 to 0.51 mM Mg2+ in presence of aztreonam by checkerboard assay; type: functional
Pseudomonas aeruginosa [23] = assay: Antibacterial activity against Pseudomonas aeruginosa 12-1 in CAMH broth medium supplemented with 20.99 to 21.09 mM Mg2+ by checkerboard assay; type: functional
Pseudomonas aeruginosa [24] = assay: Antibacterial activity against Pseudomonas aeruginosa 13-35 in CAMH broth medium supplemented with 20.99 to 21.09 mM Mg2+ by checkerboard assay; type: functional
Pseudomonas aeruginosa [25] = assay: Synergistic antibacterial activity against Pseudomonas aeruginosa 16-11 in CAMH broth medium supplemented with 20.99 to 21.09 mM Mg2+ in presence of aztreonam by checkerboard assay; type: functional
Pseudomonas aeruginosa [26] = assay: Synergistic antibacterial activity against Pseudomonas aeruginosa PAO1 assessed as fractional inhibitory concentration index in CAMH broth medium supplemented with 0.41 to 0.51 mM Mg2+ in presence of aztreonam by checkerboard assay; type: functional
Pseudomonas aeruginosa [27] = assay: Synergistic antibacterial activity against Pseudomonas aeruginosa 21-7 assessed as fractional inhibitory concentration index at 128 ug/ml incubated for 18 hrs in presence of aztreonam by checkerboard method; type: functional; conditions: dose 128 µg/ml
[28] = Cytotoxicity against HEK293 cells incubated for 24 hrs by MTT assay; type: toxicity, cell-based; conditions: human
Pseudomonas aeruginosa [29] = assay: Synergistic antibacterial activity against Pseudomonas aeruginosa 23-Y372 assessed as fractional inhibitory concentration index at 128 ug/ml incubated for 18 hrs in presence of aztreonam by checkerboard method; type: functional; conditions: dose 128 µg/ml
Pseudomonas aeruginosa [30] = assay: Synergistic antibacterial activity against Pseudomonas aeruginosa PAO1 assessed as fractional inhibitory concentration index incubated for 18 hrs in presence of aztreonam by checkerboard method; type: functional
Pseudomonas aeruginosa [31] = assay: Synergistic antibacterial activity against Pseudomonas aeruginosa 13-35 in CAMH broth medium supplemented with 20.99 to 21.09 mM Mg2+ in presence of aztreonam by checkerboard assay; type: functional
Pseudomonas aeruginosa [32] = assay: Antibacterial activity against Pseudomonas aeruginosa 21-8 assessed as inhibition of bacterial growth incubated for 18 hrs by agar dilution method; type: functional
Pseudomonas aeruginosa [33] = assay: Synergistic antibacterial activity against Pseudomonas aeruginosa 13-3 assessed as fractional inhibitory concentration index at 128 ug/ml incubated for 18 hrs in presence of aztreonam by checkerboard method; type: functional; conditions: dose 128 µg/ml
Pseudomonas aeruginosa [34] = assay: Synergistic antibacterial activity against Pseudomonas aeruginosa 23-Y122 assessed as aztreonam MIC at 128 ug/ml incubated for 18 hrs by checkerboard method; type: functional; conditions: dose 128 µg/ml
Pseudomonas aeruginosa [35] = assay: Synergistic antibacterial activity against Pseudomonas aeruginosa 12-1 assessed as fractional inhibitory concentration index at 128 ug/ml incubated for 18 hrs in presence of aztreonam by checkerboard method; type: functional; conditions: dose 128 µg/ml

Compound	MIC (Pseudomonas aeruginosa [1])	MIC (Pseudomonas aeruginosa [2])	fractional inhibitory concentration index (FICI) (Pseudomonas aeruginosa [3])	MIC (Pseudomonas aeruginosa [4])	fractional inhibitory concentration index (FICI) (Pseudomonas aeruginosa [5])	fractional inhibitory concentration index (FICI) (Pseudomonas aeruginosa [6])	fractional inhibitory concentration index (FICI) (Pseudomonas aeruginosa [7])	MIC (Pseudomonas aeruginosa [8])	fractional inhibitory concentration index (FICI) (Pseudomonas aeruginosa [9])	fractional inhibitory concentration index (FICI) (Pseudomonas aeruginosa [10])	fractional inhibitory concentration index (FICI) (Pseudomonas aeruginosa [11])	fractional inhibitory concentration index (FICI) (Pseudomonas aeruginosa [12])	MIC (Pseudomonas aeruginosa [13])	MIC (Pseudomonas aeruginosa [14])	fractional inhibitory concentration index (FICI) (Pseudomonas aeruginosa [15])	fractional inhibitory concentration index (FICI) (Pseudomonas aeruginosa [16])	fractional inhibitory concentration index (FICI) (Pseudomonas aeruginosa [17])	MIC (Pseudomonas aeruginosa [18])	MIC (Pseudomonas aeruginosa [19])	fractional inhibitory concentration index (FICI) (Pseudomonas aeruginosa [20])	further results
NCCC[C@H](NC(=O)C[C@@H](N)Cc1ccccc1)C(=O)Nc1ccc2ccccc2c1	16 µg/mL	2 µg/mL	0.375	512 µg/mL	0.5	0.375	0.5	128 µg/mL	0.5	1.25	1.25	1.25	> 512 µg/mL	128 µg/mL	1.25	<0.5	1	128 µg/mL	512 µg/mL	1.25	fractional inhibitory concentration index (FICI) (Pseudomonas aeruginosa [21]): 0.5; MIC (Pseudomonas aeruginosa [22]): 128 µg/mL; MIC (Pseudomonas aeruginosa [23]): 512 µg/mL; MIC (Pseudomonas aeruginosa [24]): 512 µg/mL; MIC (Pseudomonas aeruginosa [25]): 128 µg/mL; fractional inhibitory concentration index (FICI) (Pseudomonas aeruginosa [26]): 0.5; fractional inhibitory concentration index (FICI) (Pseudomonas aeruginosa [27]): 0.5; CC50 at 24 h [28]: > 100 µM; fractional inhibitory concentration index (FICI) (Pseudomonas aeruginosa [29]): 0.375; fractional inhibitory concentration index (FICI) (Pseudomonas aeruginosa [30]): 0.375; MIC (Pseudomonas aeruginosa [31]): 128 µg/mL; MIC (Pseudomonas aeruginosa [32]): > 512 µg/mL; fractional inhibitory concentration index (FICI) (Pseudomonas aeruginosa [33]): 0.375; MIC (Pseudomonas aeruginosa [34]): 32 µg/mL; fractional inhibitory concentration index (FICI) (Pseudomonas aeruginosa [35]): 0.5
N=C(N)NCCC[C@H](NC(=O)[C@@H](N)Cc1ccccc1)C(=O)Nc1ccc2ccccc2c1 [PABETAN] (H-Phe-Arg-βNA)	8 µg/mL	2 µg/mL	0.375	512 µg/mL	0.5	0.5	0.375	128 µg/mL	0.5	1.25	1.25	0.75	512 µg/mL (≈ 1150 µM)	128 µg/mL	1.25	<0.75	1	128 µg/mL	512 µg/mL	1.25	fractional inhibitory concentration index (FICI) (Pseudomonas aeruginosa [21]): 0.5; MIC (Pseudomonas aeruginosa [22]): 128 µg/mL; MIC (Pseudomonas aeruginosa [23]): 512 µg/mL; MIC (Pseudomonas aeruginosa [24]): 512 µg/mL; MIC (Pseudomonas aeruginosa [25]): 128 µg/mL; fractional inhibitory concentration index (FICI) (Pseudomonas aeruginosa [26]): 0.5; fractional inhibitory concentration index (FICI) (Pseudomonas aeruginosa [27]): 0.5; CC50 at 24 h [28]: > 100 µM; fractional inhibitory concentration index (FICI) (Pseudomonas aeruginosa [29]): 0.375; fractional inhibitory concentration index (FICI) (Pseudomonas aeruginosa [30]): 0.375; MIC (Pseudomonas aeruginosa [31]): 128 µg/mL; MIC (Pseudomonas aeruginosa [32]): 512 µg/mL (≈ 1150 µM); fractional inhibitory concentration index (FICI) (Pseudomonas aeruginosa [33]): 0.375; MIC (Pseudomonas aeruginosa [34]): 16 µg/mL; fractional inhibitory concentration index (FICI) (Pseudomonas aeruginosa [35]): 0.375
